Patent US11845770B2, “Ascaroside derivatives and methods of use” (California Institute of Technology, priority 2019, dated 2023)
Blank lines part the entries; values can stand above or below the molecule they belong to.

How the values were obtained:
[1] = Stability in hepatocytes (rat); format: in vitro ADME; conditions: cryopreserved rat hepatocytes (suspension)
Description: 10 mM of 1 was provided as a 1000× stock solution in dimethylsulfoxide (DMSO), and the stock solution was diluted to 1 mM with DMSO in 96-well plates. 30 mM of positive compounds (7-ethoxycoumarin and 7-hydroxycoumarin) were provided as a 1000× stock solution in DMSO, and the stock solution was diluted to 3 mM with DMSO in 96-well plates. 20 μL of 1000× stock solution of each compound were pipetted and was mixed with 380 μL of 45% MeOH/H2O to obtain 50 μM of 1 and 150 μM of the positive control compound solutions to form 50× intermediate solutions. 20 μL of 50× intermediate solution of each compound were pipetted and was mixed with […] of pre-warmed incubation medium to obtain 5 μM of 1 and 15 μM of the positive control compound solutions to form 5× working solutions. The incubation medium was Williams' Medium E (no phenol red) containing 2 mM L-glutamine and 25 mM HEPES. 10 μL of 5× working solutions of each compound were pipetted into appropriate wells in a 96-well plate for time points of 0 minutes, 15 minutes, 30 minutes, 60 minutes, and 90 minutes in duplicates. The plates with compounds were kept warm in an incubator at 37° C.
A cell suspension was prepared by thawing cryopreserved cells, isolating the cells, and suspending the cells in thawing medium. […]
The remaining percentage of 1 after incubation was calculated according to the following equation. […]

[2] = test system: BEAS-2B human lung epithelial cells; experiment: Stimulation of BEAS-2B human lung epithelial cells, cytokine expression; format: cell-based; conditions: 48 h
Description: BEAS-2B cells were maintained in Bronchial Epithelial Cell Growth Basal Medium (BEBM) containing all the recommended supplements for the Bronchial Epithelial Cell Growth Medium (BEGM; Lonza #CC-4175) and allowed to attain approximately 70% confluency with media changed every 2-3 days at 37° C. with 5% (v/v) CO2. Tissue culture flasks/vessels were pre-coated with a mixture of 0.01 mg/mL fibronectin (Sigma), 0.03 mg/ml bovine collagen type I (Sigma) and 0.01 mg/mL bovine serum albumin dissolved in the BEBM. BEAS-2B cells were seeded with 0.5 ml of 1×10^6 cells/mL in BEGM per well on 24-well plates and incubated overnight at 37° C. with 5% (v/v) CO2. The cells are pre-treated with different concentrations of compounds (0, 1.0, 10, 100, 1000 μM) for 1 hour prior to stimulation. To stimulate the cells, 10 ng/mL of Interleukin-1 beta (IL-1β), 10 ng/mL of Lipopolysaccharides (LPS), or 20 ng/mL of IL-1$ is added to the wells without removing the media and incubated for 48 hours at 37° C. with 5% (v/v) CO2. Supernatants were collected and stored at −80° C. until quantitative detection assays are performed. Human Eotaxin, Monocyte Chemoattractant Protein-1 (MCP-1), Interleukin-6 (IL-6), Interleukin-25 (IL-25), Interleukin-33 (IL-33), Thymic stromal lymphopoietin (TSLP), and Granulocyte-Macrophage Colony-Stimulating Factor (GM-CSF) released from supernatants collected post stimulation were measured using Human Magnetic Luminex® Assay Kit. Human CCL5/RANTES was measured using an Enzyme-Linked Immunosorbent Assay (ELISA)-based analysis.

CYP2C9 = target: T1, CYP2C9 (Homo sapiens, UniProt P11712); experiment: 5 in 1 CYP inhibition assay, CYP2C9; format: in vitro ADME; conditions: microsomes, probe diclofenac (4′-hydroxylation), test compound 10 μM, n=2, read-out: inhibition of cytochrome P450 isoform 2C9
T1 construct: from tissue
Description: (§1) CYP450 dependent activities were determined using a marker substrate cocktail. For each reaction, enzyme activities in the presence and absence of test compound (10 μM) were measured in duplicate. A known inhibitor for each isoform, tested at a single concentration (3 μM, n=2), was included as positive control. Incubation mixtures containing microsomes, substrate, and standard inhibitor or test compound were warmed at 37° C. for 10 minutes. Reactions were initiated by addition of the NADPH and incubated for 10 min. [table] After incubation, ice cold acetonitrile was added to terminate the reaction. Generation of metabolites from the substrate reactions was determined by LC-MS/MS.

CYP2D6 = target: T2, CYP2D6 (Homo sapiens, UniProt P10635); experiment: 5 in 1 CYP inhibition assay, CYP2D6; format: in vitro ADME; conditions: microsomes, probe dextromethorphan (O-demethylation), test compound 10 μM, n=2, read-out: inhibition of cytochrome P450 isoform 2D6
T2 construct: from tissue
Description: as §1

CYP3A4 = target: T3, CYP3A4 (Homo sapiens, UniProt P08684); experiment: 5 in 1 CYP inhibition assay, CYP3A4; format: in vitro ADME; conditions: microsomes, probe midazolam (1′-hydroxylation), test compound 10 μM, n=2, read-out: inhibition of cytochrome P450 isoform 3A4
T3 construct: from tissue
Description: as §1

[3] = 10 ng/mL IL-1β, compound concentration series, FIG. 10A
[4] = 10 ng/mL IL-1β, compound concentration series, FIG. 10B
[5] = at 100 μM, 10 ng/mL IL-1β, FIG. 10A
[6] = at 100 μM, 10 ng/mL IL-1β, FIG. 10B
[7] = 10 ng/mL LPS, compound concentration series, FIG. 11A
[8] = 10 ng/mL LPS, compound concentration series, FIG. 11B

T2 sequence (P10635 whole entry, canonical isoform): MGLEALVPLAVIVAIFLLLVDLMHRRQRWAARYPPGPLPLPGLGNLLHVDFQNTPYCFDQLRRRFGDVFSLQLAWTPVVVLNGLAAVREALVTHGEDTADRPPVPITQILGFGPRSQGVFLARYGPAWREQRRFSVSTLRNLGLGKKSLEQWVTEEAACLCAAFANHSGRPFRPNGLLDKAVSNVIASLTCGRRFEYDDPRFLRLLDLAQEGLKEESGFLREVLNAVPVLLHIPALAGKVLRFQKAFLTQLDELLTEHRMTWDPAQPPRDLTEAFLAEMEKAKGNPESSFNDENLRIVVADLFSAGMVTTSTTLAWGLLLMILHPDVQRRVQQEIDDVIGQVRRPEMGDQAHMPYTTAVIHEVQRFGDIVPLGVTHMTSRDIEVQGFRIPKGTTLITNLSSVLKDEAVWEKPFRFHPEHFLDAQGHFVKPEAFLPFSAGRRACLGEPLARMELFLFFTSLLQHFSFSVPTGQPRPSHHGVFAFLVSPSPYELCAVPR
T1 sequence (P11712 whole entry, canonical isoform): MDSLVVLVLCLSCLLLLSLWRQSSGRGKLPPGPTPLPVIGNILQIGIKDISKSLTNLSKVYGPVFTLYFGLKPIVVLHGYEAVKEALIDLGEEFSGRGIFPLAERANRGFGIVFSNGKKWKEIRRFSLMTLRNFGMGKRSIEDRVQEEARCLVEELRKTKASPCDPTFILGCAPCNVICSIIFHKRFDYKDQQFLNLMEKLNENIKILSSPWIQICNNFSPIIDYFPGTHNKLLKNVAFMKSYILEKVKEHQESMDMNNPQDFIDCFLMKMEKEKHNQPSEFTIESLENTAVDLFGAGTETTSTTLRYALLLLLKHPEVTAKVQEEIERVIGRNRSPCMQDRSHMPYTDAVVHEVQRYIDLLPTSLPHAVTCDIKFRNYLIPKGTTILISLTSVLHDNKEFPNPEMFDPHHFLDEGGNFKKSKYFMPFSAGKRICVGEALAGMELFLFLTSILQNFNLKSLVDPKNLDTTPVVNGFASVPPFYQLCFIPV
T3 sequence (P08684 whole entry, canonical isoform): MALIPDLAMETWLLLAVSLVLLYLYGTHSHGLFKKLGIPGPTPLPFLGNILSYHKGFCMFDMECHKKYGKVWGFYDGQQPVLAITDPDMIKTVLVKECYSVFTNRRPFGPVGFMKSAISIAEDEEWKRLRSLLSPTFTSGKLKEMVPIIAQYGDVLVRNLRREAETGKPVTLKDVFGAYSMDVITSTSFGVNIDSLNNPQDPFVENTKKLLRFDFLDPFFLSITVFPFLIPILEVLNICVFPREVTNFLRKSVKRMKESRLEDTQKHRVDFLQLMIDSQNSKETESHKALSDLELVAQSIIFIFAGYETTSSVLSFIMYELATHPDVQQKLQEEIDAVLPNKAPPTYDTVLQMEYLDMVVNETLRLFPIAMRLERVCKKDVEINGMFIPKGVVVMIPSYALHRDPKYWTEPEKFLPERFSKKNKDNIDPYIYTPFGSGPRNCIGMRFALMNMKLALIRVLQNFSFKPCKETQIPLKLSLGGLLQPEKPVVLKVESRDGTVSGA

half-life at 1 µM [1]: 23.1 min
inhibition at 10 min, 10 µM (CYP2C9): 4.3%
inhibition at 10 min, 10 µM (CYP2D6): 10.1%
inhibition at 10 min, 10 µM (CYP3A4): 1%
SMILES: C[C@H](CC/C=C/C(=O)OC(C)(C)C)O[C@@H]1O[C@@H](C)[C@H](O)C[C@H]1O [Compound 1, tert-butyl (2E,6R)-6-{[(2R,3R,5R,6S)-3,5-dihydroxy-6-methyloxan-2-yl]oxy}hept-2-enoate]
percent inhibition relative to Stimulated of IL-25 expression [2, 3]: statistically significant, dose-dependent inhibition
percent inhibition relative to Stimulated of Eotaxin expression [2, 4]: statistically significant, dose-dependent inhibition
percent inhibition relative to Stimulated of IL-6 expression [2, 5]: statistically significant, complete inhibition
percent inhibition relative to Stimulated of IL-8 expression [2, 5]: statistically significant, complete inhibition
percent inhibition relative to Stimulated of IL-25 expression [2, 5]: statistically significant, complete inhibition
percent inhibition relative to Stimulated of IL-33 expression [2, 5]: statistically significant, complete inhibition
percent inhibition relative to Stimulated of GM-CSF expression [2, 6]: statistically significant, complete inhibition
percent inhibition relative to Stimulated of MCP-1 expression [2, 6]: statistically significant, complete inhibition
percent inhibition relative to Stimulated of TSLP expression [2, 6]: statistically significant, complete inhibition
inhibition of expression of multiple inflammatory cytokines (IL-6, IL-8, IL-25, IL-33) ([2]; at 100 μM, 10 ng/mL LPS, FIG. 11A): complete, statistically significant inhibition
inhibition of expression of multiple inflammatory cytokines (GMCSF, MCP-1, TSLP) ([2]; at 100 μM, 10 ng/mL LPS, FIG. 11B): statistically significant, complete inhibition

half-life at 1 µM [1]: > 217 min
inhibition at 10 min, 10 µM (CYP2C9): 0%
inhibition at 10 min, 10 µM (CYP2D6): 4.6%
inhibition at 10 min, 10 µM (CYP3A4): 0%
SMILES: C[C@H](CC/C=C/C(=O)O)O[C@@H]1O[C@@H](C)[C@H](O)C[C@H]1O [ascr #7, reference compound]
percent inhibition relative to Stimulated of IL-6 expression [2, 3]: did not show convincing inhibition
percent inhibition relative to Stimulated of IL-8 expression [2, 3]: did not show convincing inhibition
percent inhibition relative to Stimulated of IL-25 expression [2, 3]: statistically significant, dose-dependent inhibition
percent inhibition relative to Stimulated of IL-33 expression [2, 3]: did not show convincing inhibition
percent inhibition relative to Stimulated of Eotaxin expression [2, 4]: statistically significant, dose-dependent inhibition
percent inhibition relative to Stimulated of GM-CSF expression [2, 4]: did not demonstrate convincing inhibition
percent inhibition relative to Stimulated of MCP-1 expression [2, 4]: did not demonstrate convincing inhibition
percent inhibition relative to Stimulated of TSLP expression [2, 4]: did not demonstrate convincing inhibition
percent inhibition relative to Stimulated of IL-6 expression [2, 7]: did not show convincing inhibition
percent inhibition relative to Stimulated of IL-8 expression [2, 7]: did not show convincing inhibition
percent inhibition relative to Stimulated of IL-25 expression [2, 7]: did not show convincing inhibition
percent inhibition relative to Stimulated of IL-33 expression [2, 7]: did not show convincing inhibition
percent inhibition relative to Stimulated of GM-CSF expression [2, 8]: did not show convincing inhibition
percent inhibition relative to Stimulated of MCP-1 expression [2, 8]: did not show convincing inhibition
percent inhibition relative to Stimulated of TSLP expression [2, 8]: did not show convincing inhibition
percent inhibition relative to Stimulated of IL-25 expression ([2]; 20 ng/mL IL-1β, compound concentration series, FIG. 12): statistically significant, dose-dependent blocking
percent inhibition relative to Stimulated of Eotaxin expression ([2]; at 10 and 100 μM, 20 ng/mL IL-1β, FIG. 13): statistically significant, almost complete blocking
